Article PMC12396409, “Screening and hit evaluation of a microbial metabolite library against the pathogenic Plasmodium falciparum and Toxoplasma gondii parasites” (International Journal for Parasitology: Drugs and Drug …, 2025)
Where two headings read alike, the source gives them in different places.

Experiments:
[1] = test system: T. gondii RH strain (RH-Tub-eYFP) tachyzoites; assay: microbe, parasite or virus in culture; type: cell-based, Toxoplasma gondii; conditions: 72 h; for percent parasite growth at 2 µg/mL: Toxoplasma gondii
[2] = test system: P. falciparum 3D7 parasites; assay: P. falciparum growth inhibition assay, 2-cycle (120 h treatment), delayed-death screen and dose-response; type: cell-based, Plasmodium falciparum; conditions: for activity at 2 µg/mL: Plasmodium falciparum, 3D7
[3] = test system: P. falciparum 3D7 parasites; assay: P. falciparum growth inhibition assay, 1-cycle (72 h treatment), SYBR DNA staining (library screen at 2 μg/mL and dose-response); type: cell-based, Plasmodium falciparum; conditions: for activity at 2 µg/mL: Plasmodium falciparum, 3D7
[4] = T. gondii RH, library screen at 2 μg/mL, % growth, replicate 1
[5] = T. gondii RH, library screen at 2 μg/mL, % growth, replicate 2
[6] = P. falciparum 3D7, 120 h, library screen at 2 μg/mL, % growth, replicate 1
[7] = P. falciparum 3D7, 120 h, library screen at 2 μg/mL, % growth, replicate 2
[8] = P. falciparum 3D7, 72 h, library screen at 2 μg/mL, % growth, replicate 1
[9] = P. falciparum 3D7, 72 h, library screen at 2 μg/mL, % growth, replicate 2
[10] = library screen at 2 μg/mL, % growth, replicate 1, read-out: Tg_72h_%Growth_Rep1
[11] = library screen at 2 μg/mL, % growth, replicate 2, read-out: Tg_72h_%Growth_Rep2
[12] = library screen at 2 μg/mL, 120 h, % growth, replicate 1, read-out: Pf_120h_%Growth_Rep1
[13] = library screen at 2 μg/mL, 120 h, % growth, replicate 2, read-out: Pf_120h_%Growth_Rep2
[14] = library screen at 2 μg/mL, 72 h, % growth, replicate 1, read-out: Pf_72h_%Growth_Rep1
[15] = library screen at 2 μg/mL, 72 h, % growth, replicate 2, read-out: Pf_72h_%Growth_Rep2
[16] = library screen at 2 μg/mL, % growth, replicate 1
[17] = library screen at 2 μg/mL, % growth, replicate 2
[18] = library screen at 2 μg/mL, 120 h, % growth, replicate 1
[19] = library screen at 2 μg/mL, 120 h, % growth, replicate 2
[20] = library screen at 2 μg/mL, 72 h, % growth, replicate 1
[21] = library screen at 2 μg/mL, 72 h, % growth, replicate 2
[22] = T. gondii, parasite screen at 2 μg/mL, % growth, replicate 1
[23] = T. gondii, parasite screen at 2 μg/mL, % growth, replicate 2
[24] = P. falciparum 3D7, 120 h, parasite screen at 2 μg/mL, % growth, replicate 1
[25] = P. falciparum 3D7, 120 h, parasite screen at 2 μg/mL, % growth, replicate 2
[26] = P. falciparum 3D7, 72 h, parasite screen at 2 μg/mL, % growth, replicate 1
[27] = P. falciparum 3D7, 72 h, parasite screen at 2 μg/mL, % growth, replicate 2

Molecule `CN(C)[C@@H]1C(=O)C(C(N)=O)=C(O)[C@@]2(O)C(=O)C3=C(O)c4c(O)cccc4C[C@H]3C[C@@H]12.Cl` [Sancycline hydrochloride] has a Tg_72h_%Growth_Rep1 ([1]; T. gondii, parasite screen 2 μg/mL, % growth, replicate 1) of 58.51%, a Tg_72h_%Growth_Rep2 ([1]; T. gondii, parasite screen 2 μg/mL, % growth, replicate 2) of 60.28% and a Pf_120h_%Growth_Rep1 ([2]; P. falciparum, 120 h, parasite screen 2 μg/mL, % growth, replicate 1) of 6.81%. For the same molecule, the Pf_120h_%Growth_Rep2 ([2]; P. falciparum, 120 h, parasite screen 2 μg/mL, % growth, replicate 2) was 7.98%, the Pf_72h_%Growth_Rep1 ([3]; P. falciparum, 72 h, parasite screen 2 μg/mL, % growth, replicate 1) was 1.26% and the Pf_72h_%Growth_Rep2 ([3]; P. falciparum, 72 h, parasite screen 2 μg/mL, % growth, replicate 2) was 7.80%.

Molecule `COc1ccc(C2CC(=O)c3c(O)cc(OC4OC(COC5OC(C)C(O)C(O)C5O)C(O)C(O)C4O)cc3O2)cc1O` (stereo not drawn) [BIA-H1766] has a Tg_72h_%Growth_Rep1 [1, 4] of 124.64%, a Tg_72h_%Growth_Rep2 [1, 5] of 85.96% and a Pf_120h_%Growth_Rep1 [2, 6] of 111.90%. For the same molecule, the Pf_120h_%Growth_Rep2 [2, 7] was 121.98%, the Pf_72h_%Growth_Rep1 [3, 8] was 83.53% and the Pf_72h_%Growth_Rep2 [3, 9] was 99.72%.

In the case of `C[C@@H](O)[C@H]1C(=O)N2C(C(=O)[O-])=C(SC3Cn4cnc[n+]4C3)[C@H](C)[C@H]12` (stereo partly drawn) [Biapenem], the percent parasite growth at 2 µg/mL [1, 10] is reported as 116%, the percent parasite growth at 2 µg/mL [1, 11] is reported as 95.1% and the activity at 2 µg/mL [2, 12] is reported as 85.6%. It also gave an activity at 2 µg/mL [2, 13] of 79.2%, an activity at 2 µg/mL [3, 14] of 84.2% and an activity at 2 µg/mL [3, 15] of 84.8%.

For `COc1ccc2c(c1)C(=O)NC(Cc1ccccc1)C(=O)NCCC(=O)N1CCCC1C(=O)N2` (stereo not drawn) [Aspercolorin], the Tg_72h_%Growth_Rep1 [1, 16] was 77.01%, the Tg_72h_%Growth_Rep2 [1, 17] was 95.41% and the Pf_120h_%Growth_Rep1 [2, 18] was 146.59%. For the same molecule, the Pf_120h_%Growth_Rep2 [2, 19] was 102.81%, the Pf_72h_%Growth_Rep1 [3, 20] was 96.39% and the Pf_72h_%Growth_Rep2 [3, 21] was 82.46%.

Molecule `CCCCCCCC(=O)N[C@H]1CCOC1=O` [BIA-O1496] has a Tg_72h_%Growth_Rep1 [1, 22] of 127.37%, a Tg_72h_%Growth_Rep2 [1, 23] of 91.78% and a Pf_120h_%Growth_Rep1 [2, 24] of 82.04%. It also gave a Pf_120h_%Growth_Rep2 [2, 25] of 138.56%, a Pf_72h_%Growth_Rep1 [3, 26] of 81.24% and a Pf_72h_%Growth_Rep2 [3, 27] of 83.86%.

`CCCC(O)C(O)C1CC(OC)=CC(=O)O1` (stereo not drawn) [BIA-H1068] showed a Tg_72h_%Growth_Rep1 [1, 4] of 107.81%, a Tg_72h_%Growth_Rep2 [1, 5] of 92.55% and a Pf_120h_%Growth_Rep1 [2, 6] of 95.79%. For the same molecule, the Pf_120h_%Growth_Rep2 [2, 7] was 147.07%, the Pf_72h_%Growth_Rep1 [3, 8] was 88.88% and the Pf_72h_%Growth_Rep2 [3, 9] was 77.83%.

With `C=C1[C@@H](C)[C@H]2[C@H](Cc3ccccc3)NC(=O)[C@]23[C@H](OC(C)=O)[C@@H]2O[C@H]2[C@@](C)(O)C(=O)[C@@H](C)C/C=C\[C@H]3[C@@H]1O` [Epoxycytochalasin D, 19,20-] the Tg_72h_%Growth_Rep1 [1, 16] was 2.15%, the Tg_72h_%Growth_Rep2 [1, 17] was 1.47% and the Pf_120h_%Growth_Rep1 [2, 18] was 6.52%. The Pf_120h_%Growth_Rep2 [2, 19] was -0.52%, the Pf_72h_%Growth_Rep1 [3, 20] was 5.59% and the Pf_72h_%Growth_Rep2 [3, 21] was 1.64%.

`CC[C@H](C)[C@H]1O[C@]2(C=C[C@@H]1C)C[C@@H]1C[C@@H](C/C=C(\C)[C@@H](O[C@H]3C[C@H](OC)[C@@H](O[C@H]4C[C@H](OC)[C@H](NC)[C@H](C)O4)[C@H](C)O3)[C@@H](C)/C=C/C=C3\CO[C@@H]4[C@H](O)C(C)=C[C@@H](C(=O)O1)[C@]34O)O2` [Emamectin B1a] showed a Tg_72h_%Growth_Rep1 [1, 16] of 22.56%, a Tg_72h_%Growth_Rep2 [1, 17] of 92.26% and a Pf_120h_%Growth_Rep1 [2, 18] of 3.81%. For the same molecule, the Pf_120h_%Growth_Rep2 [2, 19] was 6.54%, the Pf_72h_%Growth_Rep1 [3, 20] was 2.12% and the Pf_72h_%Growth_Rep2 [3, 21] was 0.39%.

In the case of `COc1cc(/C=N/O)nc(-c2ccccn2)c1` [Caerulomycin], the Tg_72h_%Growth_Rep1 ([1]; T. gondii, screen at 2 μg/mL, replicate 1) is reported as 2.08%, the Tg_72h_%Growth_Rep2 ([1]; T. gondii, screen at 2 μg/mL, replicate 2) is reported as 0.20% and the Pf_120h_%Growth_Rep1 ([2]; P. falciparum, 120 h, screen at 2 μg/mL, replicate 1) is reported as 2.50%. The Pf_120h_%Growth_Rep2 ([2]; P. falciparum, 120 h, screen at 2 μg/mL, replicate 2) was -6.36%, the Pf_72h_%Growth_Rep1 ([3]; P. falciparum, 72 h, screen at 2 μg/mL, replicate 1) was 5.29% and the Pf_72h_%Growth_Rep2 ([3]; P. falciparum, 72 h, screen at 2 μg/mL, replicate 2) was 5.34%.

Molecule `CC=C(C)c1c(Cl)c(OC)c(C)c2c1Oc1c(Cl)c(O)c(Cl)c(C)c1C(=O)O2` [BIA-N1157] has a Tg_72h_%Growth_Rep1 [1, 22] of 96.79%, a Tg_72h_%Growth_Rep2 [1, 23] of 78.56% and a Pf_120h_%Growth_Rep1 [2, 24] of 89.90%. For the same molecule, the Pf_120h_%Growth_Rep2 [2, 25] was 141.00%, the Pf_72h_%Growth_Rep1 [3, 26] was 86.70% and the Pf_72h_%Growth_Rep2 [3, 27] was 91.20%.

For `COc1cc(C)c(C(=O)Oc2cc(C)c(C(=O)O)c(O)c2)c(O)c1` [Evernic acid], the percent parasite growth at 2 µg/mL [1, 10] was 133%, the percent parasite growth at 2 µg/mL [1, 11] was 102% and the activity at 2 µg/mL [2, 12] was 97.5%. For the same molecule, the activity at 2 µg/mL [2, 13] was 94.9%, the activity at 2 µg/mL [3, 14] was 86.3% and the activity at 2 µg/mL [3, 15] was 86.5%.
